Assay results as given in BindingDB's records for doi:10.1016/j.chembiol.2008.07.015 (Duke University Medical Center, 2008).

Legend:
Test in all cases: BP Incorporation Assay
Conditions in all cases: 37 °C
[1] = target: T1, Protein-glutamine gamma-glutamyltransferase 2 (Homo sapiens, UniProt P21980)
T1 sequence (P21980 whole entry): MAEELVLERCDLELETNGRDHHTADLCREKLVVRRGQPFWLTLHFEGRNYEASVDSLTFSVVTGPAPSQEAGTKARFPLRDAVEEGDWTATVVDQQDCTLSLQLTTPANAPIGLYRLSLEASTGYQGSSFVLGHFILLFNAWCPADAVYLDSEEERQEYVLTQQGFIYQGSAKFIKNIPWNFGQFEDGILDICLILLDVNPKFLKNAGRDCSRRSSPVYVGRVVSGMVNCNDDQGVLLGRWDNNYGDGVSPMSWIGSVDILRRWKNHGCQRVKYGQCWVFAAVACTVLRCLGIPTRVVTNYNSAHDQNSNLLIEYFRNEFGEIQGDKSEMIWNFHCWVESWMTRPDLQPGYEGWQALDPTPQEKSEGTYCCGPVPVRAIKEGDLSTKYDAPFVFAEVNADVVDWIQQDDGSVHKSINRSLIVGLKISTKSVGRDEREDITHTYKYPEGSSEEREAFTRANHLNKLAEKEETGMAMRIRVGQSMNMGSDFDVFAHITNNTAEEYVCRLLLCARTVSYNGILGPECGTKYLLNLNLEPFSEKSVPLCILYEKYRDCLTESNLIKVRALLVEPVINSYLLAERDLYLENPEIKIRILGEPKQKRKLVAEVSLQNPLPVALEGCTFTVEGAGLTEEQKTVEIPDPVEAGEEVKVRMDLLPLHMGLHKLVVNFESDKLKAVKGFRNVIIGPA
Protocol: (§1) In order to eliminated fluorescence interference, chemicals were subjected to a secondary screening using colorimetric BP incorporation assay. TGase/TGMS activity was determined by quantifying the incorporation of BP into N,N'-dimethylcasein in a microtiter plate.

[2] = target: Protein kinase C alpha type/glutamine gamma-glutamyltransferase 2 (Homo sapiens, UniProt P17252+P21980)
Protocol: as §1

[3] = target: Protein-glutamine gamma-glutamyltransferase 2/Receptor protein-tyrosine kinase (Homo sapiens, UniProt P21980+Q504U8)
Protocol: as §1

Chain of Protein-glutamine gamma-glutamyltransferase 2/Receptor protein-tyrosine kinase (Q504U8 whole entry, one chain of several): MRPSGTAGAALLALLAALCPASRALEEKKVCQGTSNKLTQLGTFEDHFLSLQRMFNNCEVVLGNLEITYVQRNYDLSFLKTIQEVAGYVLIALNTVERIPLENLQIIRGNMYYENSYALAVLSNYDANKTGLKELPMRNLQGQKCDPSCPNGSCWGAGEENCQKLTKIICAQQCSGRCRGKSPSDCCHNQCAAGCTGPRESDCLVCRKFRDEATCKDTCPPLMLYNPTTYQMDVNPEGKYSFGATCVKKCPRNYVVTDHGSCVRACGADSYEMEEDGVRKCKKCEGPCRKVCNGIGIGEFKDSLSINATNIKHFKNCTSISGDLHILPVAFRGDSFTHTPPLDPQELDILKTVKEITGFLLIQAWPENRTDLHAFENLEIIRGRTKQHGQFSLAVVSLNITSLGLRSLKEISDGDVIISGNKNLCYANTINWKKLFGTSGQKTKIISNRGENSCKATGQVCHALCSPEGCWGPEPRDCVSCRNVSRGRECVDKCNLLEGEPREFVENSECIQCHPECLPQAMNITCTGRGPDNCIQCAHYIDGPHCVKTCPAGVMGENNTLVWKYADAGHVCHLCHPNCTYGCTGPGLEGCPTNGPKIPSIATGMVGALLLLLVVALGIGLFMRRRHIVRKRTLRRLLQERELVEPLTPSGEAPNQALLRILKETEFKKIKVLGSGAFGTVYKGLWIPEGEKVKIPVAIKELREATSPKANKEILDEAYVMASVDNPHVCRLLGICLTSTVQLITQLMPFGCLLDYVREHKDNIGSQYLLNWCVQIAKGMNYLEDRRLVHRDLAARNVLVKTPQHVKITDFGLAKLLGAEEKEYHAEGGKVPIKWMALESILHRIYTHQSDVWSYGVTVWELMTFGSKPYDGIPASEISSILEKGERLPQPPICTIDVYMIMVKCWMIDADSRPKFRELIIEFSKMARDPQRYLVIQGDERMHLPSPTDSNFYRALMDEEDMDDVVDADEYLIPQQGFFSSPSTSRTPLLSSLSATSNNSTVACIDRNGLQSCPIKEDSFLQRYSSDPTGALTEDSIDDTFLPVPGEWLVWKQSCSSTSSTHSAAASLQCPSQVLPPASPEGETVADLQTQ

| SMILES | IC50 [2] | also measured |
| --- | --- | --- |
| CC1=CC(=O)c2ccccc2C1=O [Vitamin K3] | – | IC50 [1]: 2.2 µM |
| O=C1Nc2ccc(I)cc2/C1=C/c1cc(Br)c(O)c(Br)c1 [G6416 (GW5074)] | 15 µM | – |
| CC(=O)c1c(O)c(C)c(O)c(Cc2c(O)c3c(c(C(=O)C=Cc4ccccc4)c2O)OC(C)(C)C=C3)c1O [(E)-1-(6-(3-acetyl-2,4,6-trihydroxy-5-methylbenzyl)-5,7-dihydroxy-2,2-dimethyl-2H-chromen-8-yl)-3-phenylprop-2-en-1-one] | 20 µM | – |
| N#C/C(=C\c1ccc(O)c(O)c1)C(N)=S [alpha-Cyano-(3,4-dihydroxy)thiocinnamide] | – | IC50 [3]: 3 µM |
